Measured values reported in ChEMBL document CHEMBL5329215, “Review and prospects of targeted therapies for Spleen tyrosine kinase (SYK)” (Bioorg Med Chem, 2023).

How the values were obtained:
[1] = molecular target: Tyrosine-protein kinase SYK (Homo sapiens, UniProt P43405); assay: Inhibition of human SYK at Py+3 pocket
[2] = PROTAC activity at E3 ubiquitin ligase (unknown origin)/STAT5 (unknown origin) assessed as […]

O=C(O)CCCCN(CCCC1CCCCC1)S(=O)(=O)/C=C/c1ccc(NC(=O)C2CCC(C(C(=O)O)C(=O)O)CC2)cc1 (configuration not stated)
IC50 [1]: 38 µM

CN(CCCC#Cc1cccc2c1CN(C1CCC(=O)NC1=O)C2=O)C(=O)CCN(C(=O)[C@@H]1CCCN1C(=O)[C@H](NC(=O)c1cc2cc(C(F)(F)P(=O)(O)O)ccc2s1)C(C)(C)C)c1ccc(-c2nccs2)cc1 (some centres not stated)
EC50 [2]: 0.1 µM
